PMC10319809, “Chronic UCN2 treatment desensitizes CRHR2 and improves insulin sensitivity” (Nature Communications, 2023)
“And” between values parts separate entries of the source, which are not always exact repeats. Identical values can stand only once. Blank lines part the entries; values can stand above or below the molecule they belong to. Where no end group is shown, it is not given here.

What was measured:
mice = assay: Antisauvagine-30 pre-treatment, oGTT with UCN2; format: in vivo, mouse
Description: For glucose tolerance tests (GTTs), animals were fasted for 8 h with ad libitum access to water. Fasting glucose measurements were taken before 300ug/kg IP dose of ASG30 (Tocris Biosciences, Bristol, UK, Catalog No: 2071) or an equivalent volume of sterile distilled water. 10 min later animals received a 1 mg/kg IP dose of UCN2 or an equivalent volume of saline co-dosed with 300ug/kg of ASG30 or an equivalent volume of water. 20 min later animals received a […] oral glucose dose. Blood glucose measurements were taken via tail nick using the AlphaTRAK 2 Glucose Monitoring System (Zoetis, Parsippany-Troy Hills, NJ) at 10, 30, 60, and 120 min after dose.
(§1) Blood Glucose (mg/dL) +Veh +Veh
(§2) Supplementary Fig. 1. Antisauvagine-30 Blunts Effects of UCN2 on Glucose Uptake.
(§3) (A) Blood glucose during oGTT. Oral glucose gavage occurred at t = 0. At t = -30 animals were
(§4) treated with either Antisauvagine-30 (ASG30) or water. At t = -20 animals were treated with
(§5) either Saline, UCN2 alone, ASG30 alone, or ASG30 and UCN2 together. Mean±SD, n = 6.
(§6) Significance was assessed by one-way ANOVA and Tukey HSD.
(§7) (B) [3H]2-Deoxyglucose uptake by the soleus muscle in insulin-treated or untreated mice, following
(§8) pre-treatment of saline, UCN2, or ASG30 and UCN2. Mean±SD, n = 6.
(§9) Significance was assessed by one-way ANOVA and Tukey HSD. * P < 0.05, ** P < 0.01, *** P < […]

soleus muscle = assay: Antisauvagine-30 pre-treatment, [3H]2DG uptake in soleus muscle; format: in vivo, mouse; settings: ASG30 300 ug/kg IP pre-treatment, UCN2 1 mg/kg, insulin 0.75 IU/kg
Description: To determine 2-deoxy-glucose (2DG) uptake in soleus muscle, mice were fasted for 5 h and anaesthetized with isoflurane. Animals were injected IP with 300 ug/kg of ASG30 or an equivalent volume of water. […] 15 min following 2DG administration, blood was collected via intracardiac stick and soleus and gastrocnemius muscles were dissected and snap frozen in liquid nitrogen. Samples were stored at −80 C until processing. Blood was treated with BaOH2 and ZnSO4 and after centrifugation, radioactivity was determined via liquid scintillation counting (Tri-Carb 5110TR, PerkinElmer, Waltham, MA). Tissue was homogenized and mixed with water or BaOH2 and ZnSO4 to determine total and unphosphorylated 2DG content.
as §1, §2, §3, §4, §5, §6, §7, §8, §9

mouse soleus muscle = assay: Ex vivo soleus muscle [3H]2-deoxyglucose uptake; settings: individual muscles
Description: Soleus muscle was removed from fed animals anesthetized by an intraperitoneal injection of pentobarbital (10 mg/100 g body weight). Dissected soleus muscles were suspended at 5 mN of tension in incubation chambers (Model 610/820 M, Danish Myo-Technology, Denmark) containing Krebs-Ringer-Buffer supplemented with 0.1% BSA, 2 mM pyruvate and 8 mM Mannitol. During the entire incubation period the KRB was maintained at 30 °C and oxygenated with 95% O2 and 5% CO2. Following 10 min of pre-incubation muscles were incubated in Krebs buffer +/− 100 nM (−7.0 log[M]) UCN2. At the next time point, 30 min later, muscles were placed in baths containing Krebs buffer +/− 100 nM (−7.0 [M]) UCN2. At the next time point, 15 min later, muscles were placed in baths containing Krebs buffer +/− 100 nM (−7.0 log[M]) UCN2 + /− 60 nM Insulin (Actrapid, Novo Nordisk, Bagsvaerd, Denmark) for 15 min. For the ex vivo glucose uptake studies, 1 mM [^3H]2-deoxyglucose (Perkin-Elmer) and 7 mM [^14C]mannitol (Perkin-Elmer) was also added at this time. Muscles that were in saline in the first bath, saline in the second bath, and saline in the third bath were assigned to the SSS group. Muscles that were in saline in the first bath, saline in the second bath, and UCN2 in the third bath were assigned to the SSU group. Muscles that were in UCN2 in the first bath, saline in the second bath, and UCN2 in the third bath were assigned to the USU group. Muscles that were in saline in the first bath, UCN2 in the second bath, and UCN2 in the third bath were assigned to the SUU group. Following incubation, muscles were harvested, washed in ice-cold KRB and immediately frozen in liquid nitrogen.
Glucose uptake was determined in muscle protein lysates by assessing the accumulation of [^3H]2-deoxyglucose with the use of [^14C]mannitol to correct for the extracellular space. Radioactivity was measured by liquid scintillation counting.

[1] = tested on: CRHR2-expressing HEK293 cells; assay: FAM-UCN2 internalization, fluorescence and live cell imaging of HEK293 cells; format: cell-based, human; settings: HEK293 cells with or without CRHR2, over 24 h
[2] = target: T1, unmodified CRHR2a (corticotropin-releasing hormone receptor 2, alpha isoform) (human) (UniProt Q13324)
T1 sequence: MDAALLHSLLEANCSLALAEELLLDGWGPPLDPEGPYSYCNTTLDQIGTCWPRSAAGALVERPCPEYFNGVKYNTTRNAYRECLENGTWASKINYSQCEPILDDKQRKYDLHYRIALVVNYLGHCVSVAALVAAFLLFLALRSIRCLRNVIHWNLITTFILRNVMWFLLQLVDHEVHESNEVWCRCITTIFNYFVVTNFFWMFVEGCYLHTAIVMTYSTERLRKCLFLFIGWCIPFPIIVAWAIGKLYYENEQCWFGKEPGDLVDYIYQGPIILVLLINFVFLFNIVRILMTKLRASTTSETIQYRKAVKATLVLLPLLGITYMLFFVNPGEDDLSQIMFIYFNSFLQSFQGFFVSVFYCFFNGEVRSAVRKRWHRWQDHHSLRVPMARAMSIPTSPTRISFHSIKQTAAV

Molecule: Antisauvagine-30 [ASG30]
glucose tolerance in UCN2-treated animals during oGTT (mice; ASG30 300ug/kg IP pre-treatment): improved glucose tolerance
effect on UCN2-induced blood glucose (mice; ASG30 300ug/kg IP pre-treatment and co-dose with 1 mg/kg UCN2): significantly blunted UCN2’s effects on blood glucose
insulin-mediated glucose uptake in soleus muscle in vivo (soleus muscle): restored insulin-mediated glucose uptake

Molecule: Insulin
2DG Uptake (mouse soleus muscle; Fig 6C, Vehicle +Insulin): 2.36 µmol/g/h and 3.79 µmol/g/h and 4.38 µmol/g/h and 3.22 µmol/g/h and 3.39 µmol/g/h
2DG Uptake (mouse soleus muscle; Fig 6D, Insulin-SSS): 3.619 µmol/g/h and 3.768 µmol/g/h and 3.935 µmol/g/h

Molecule: FAM-UCN2: Fluorescently labeled UCN2 (IVLSLDVPIGLLQILLEQARARAAREQATTNARILARVGHC; ends and bridges not checked; also: FAM label, position not given here)
internalization of the labeled ligand [1]: internalized in a receptor-dependent manner

Gs activation, ebBRET biosensor (Gas-RlucII leaving the plasma membrane), HEK293 cells with increasing UCN2; EC50 of UCN2 [2]: 0.1 nM
β-Arrestin 1 recruitment, ebBRET effector membrane translocation assay, HEK293 cells with increasing UCN2; EC50 of UCN2 [2]: 6.5 nM
β-Arrestin 2 recruitment, ebBRET effector membrane translocation assay, HEK293 cells with increasing UCN2; EC50 of UCN2 [2]: 6.1 nM
B1: Urocortin 2 (UCN2) (ligand)
chain: IVLSLDVPIGLLQILLEQARARAAREQATTNARILARVGHC
